Laboratory results: paper PMC11899342, “Novel Triazeneindole Antibiotics: Synthesis and Hit-to-Lead Optimization” (International Journal of Molecular Sciences, 2025)
Values after ≈ are worked out from the molar mass of the structure shown. Read-outs that look alike come from different tables or passages of the source.

Tests used:
MRSA clinical isolates [1] = experiment: Antibiotic susceptibility profile of MRSA clinical isolates (EUCAST breakpoints); format: cell-based, Staphylococcus aureus
From the text: (§1) Clinical MRSA isolates with multidrug resistance were obtained from the collection of the Research Institute of Antimicrobial Chemotherapy, Smolensk State Medical Academy.

MRSA clinical isolates [2] = experiment: MIC by broth microdilution against multidrug-resistant MRSA clinical isolates; format: cell-based, Staphylococcus aureus; settings: Staphylococcus aureus, MRSA, read-out: MIC against 8 MRSA strains
Method: as §1
The MICs were determined using a broth microdilution method according to [42]. Briefly, serial dilutions of the tested compounds in 50 µL of Mueller Hinton broth (BD) were prepared in 96-well microplates. The antibiotics vancomycin and linezolid (Sigma-Aldrich, St. Louis, MO, USA) were used as a positive control. Bacterial suspensions of the tested MRSA strains were prepared in the Mueller Hinton broth (BD) with a concentration 1 × 10^6 CFU/mL, and then 50 µL aliquots were added to the prepared microplates. The final concentrations of the antibiotics in the wells were 1, 0.5, 0.25, and 0.125 mg/L, for the tested compounds, and 2 mg/L for vancomycin and linezolid. Negative control (lack of bacterial cells) and growth control (lack of compound) wells were included in all plates. The microplates were incubated at 37 °C for 18 h. The growth was assessed visually after incubation, and the MIC was assumed as the lowest compound concentration at which a noticeable growth of the microorganisms was inhibited (no visible growth). All experiments were conducted in triplicate.

Cc1cc(NS(=O)(=O)c2ccc(N)cc2)no1 [SUL, sulfamethoxazole] was tested, and the Drug sensibility profile (MRSA clinical isolates [1]; MRSA strain 1) was “R”, the Drug sensibility profile (MRSA clinical isolates [1]; MRSA strain 2) was “S” and the Drug sensibility profile (MRSA clinical isolates [1]; MRSA strain 3) was “S”. For the same compound, the Drug sensibility profile (MRSA clinical isolates [1]; MRSA strain 4) was “S”, the Drug sensibility profile (MRSA clinical isolates [1]; MRSA strain 5) was “S” and the Drug sensibility profile (MRSA clinical isolates [1]; MRSA strain 6) was “S”. For the same compound, the Drug sensibility profile (MRSA clinical isolates [1]; MRSA strain 7) was “S”, the Drug sensibility profile (MRSA clinical isolates [1]; MRSA strain 8) was “S” and the Drug sensibility profile (MRSA clinical isolates [1]; MRSA strain 9) was “S”. For the same compound, the Drug sensibility profile (MRSA clinical isolates [1]; MRSA strain 10) was “S”, the Drug sensibility profile (MRSA clinical isolates [1]; MRSA strain 12) was “S” and the Drug sensibility profile (MRSA clinical isolates [1]; MRSA strain 13) was “S”. For the same compound, the Drug sensibility profile (MRSA clinical isolates [1]; MRSA strain 14) was “S”, the Drug sensibility profile (MRSA clinical isolates [1]; MRSA strain 15) was “S” and the Drug sensibility profile (MRSA clinical isolates [1]; MRSA strain 16) was “S”. For the same compound, the Drug sensibility profile (MRSA clinical isolates [1]; MRSA strain 17) was “I”, the Drug sensibility profile (MRSA clinical isolates [1]; MRSA strain 18) was “S” and the Drug sensibility profile (MRSA clinical isolates [1]; MRSA strain 21) was “S”. For the same compound, the Drug sensibility profile (MRSA clinical isolates [1]; MRSA strain 23) was “S”, the Drug sensibility profile (MRSA clinical isolates [1]; MRSA strain 24) was “S” and the Drug sensibility profile (MRSA clinical isolates [1]; MRSA strain 25) was “S”. For the same compound, the Drug sensibility profile (MRSA clinical isolates [1]; MRSA strain 26) was “S S S S S S S”, the Drug sensibility profile (MRSA clinical isolates [1]; MRSA strain 27) was “S” and the Drug sensibility profile (MRSA clinical isolates [1]; MRSA strain 28) was “S”. The Drug sensibility profile (MRSA clinical isolates [1]; MRSA strain 29) was “S”, the Drug sensibility profile (MRSA clinical isolates [1]; MRSA strain 30) was “S” and the Drug sensibility profile (MRSA clinical isolates [1]; MRSA strain 31) was “S”. For the same compound, the Drug sensibility profile (MRSA clinical isolates [1]; MRSA strain 34) was “S”, the Drug sensibility profile (MRSA clinical isolates [1]; MRSA strain 35) was “S” and the Drug sensibility profile (MRSA clinical isolates [1]; MRSA strain 36) was “S S S S S S S”. For the same compound, the Drug sensibility profile (MRSA clinical isolates [1]; MRSA strain 40) was “S”, the Drug sensibility profile (MRSA clinical isolates [1]; MRSA strain 41) was “S” and the Drug sensibility profile (MRSA clinical isolates [1]; MRSA strain 42) was “S”. For the same compound, the Drug sensibility profile (MRSA clinical isolates [1]; MRSA strain 43) was “S”, the Drug sensibility profile (MRSA clinical isolates [1]; MRSA strain 44) was “S” and the Drug sensibility profile (MRSA clinical isolates [1]; MRSA strain 45) was “S”. For the same compound, the Drug sensibility profile (MRSA clinical isolates [1]; MRSA strain 46) was “S”, the Drug sensibility profile (MRSA clinical isolates [1]; MRSA strain 48) was “S” and the Drug sensibility profile (MRSA clinical isolates [1]; MRSA strain 49) was “S”. The Drug sensibility profile (MRSA clinical isolates [1]; MRSA strain 50) was “S” and the Drug sensibility profile (MRSA clinical isolates [1]; MRSA strain 51) was “S”.
CC(=O)NC[C@H]1CN(c2ccc(N3CCOCC3)c(F)c2)C(=O)O1 [Linezolid, linezolid] showed an MIC (MRSA clinical isolates [2]; Figure 6, MRSA strain 2) of 2 mg/L (≈ 5.93 µM), an MIC (MRSA clinical isolates [2]; Figure 6, MRSA strain 7) of 2 mg/L (≈ 5.93 µM) and an MIC (MRSA clinical isolates [2]; Figure 6, MRSA strain 8) of 2 mg/L (≈ 5.93 µM). For the same compound, the MIC (MRSA clinical isolates [2]; Figure 6, MRSA strain 9) was 2 mg/L (≈ 5.93 µM), the MIC (MRSA clinical isolates [2]; Figure 6, MRSA strain 13) was 2 mg/L (≈ 5.93 µM) and the MIC (MRSA clinical isolates [2]; Figure 6, MRSA strain 21) was 2 mg/L (≈ 5.93 µM). The MIC (MRSA clinical isolates [2]; Figure 6, MRSA strain 48) was 2 mg/L (≈ 5.93 µM), the MIC (MRSA clinical isolates [2]; Figure 6, MRSA strain 50) was 2 mg/L (≈ 5.93 µM) and the Drug sensibility profile (MRSA clinical isolates [1]; MRSA strain 1) was “S”. For the same compound, the Drug sensibility profile (MRSA clinical isolates [1]; MRSA strain 2) was “S”, the Drug sensibility profile (MRSA clinical isolates [1]; MRSA strain 3) was “S” and the Drug sensibility profile (MRSA clinical isolates [1]; MRSA strain 4) was “S”. The Drug sensibility profile (MRSA clinical isolates [1]; MRSA strain 5) was “S”, the Drug sensibility profile (MRSA clinical isolates [1]; MRSA strain 6) was “S” and the Drug sensibility profile (MRSA clinical isolates [1]; MRSA strain 7) was “S”. The Drug sensibility profile (MRSA clinical isolates [1]; MRSA strain 8) was “S”, the Drug sensibility profile (MRSA clinical isolates [1]; MRSA strain 9) was “S” and the Drug sensibility profile (MRSA clinical isolates [1]; MRSA strain 10) was “S”. For the same compound, the Drug sensibility profile (MRSA clinical isolates [1]; MRSA strain 12) was “S”, the Drug sensibility profile (MRSA clinical isolates [1]; MRSA strain 13) was “S” and the Drug sensibility profile (MRSA clinical isolates [1]; MRSA strain 14) was “S”. For the same compound, the Drug sensibility profile (MRSA clinical isolates [1]; MRSA strain 15) was “S”, the Drug sensibility profile (MRSA clinical isolates [1]; MRSA strain 16) was “S” and the Drug sensibility profile (MRSA clinical isolates [1]; MRSA strain 17) was “S”. For the same compound, the Drug sensibility profile (MRSA clinical isolates [1]; MRSA strain 18) was “S”, the Drug sensibility profile (MRSA clinical isolates [1]; MRSA strain 21) was “S” and the Drug sensibility profile (MRSA clinical isolates [1]; MRSA strain 23) was “S”. The Drug sensibility profile (MRSA clinical isolates [1]; MRSA strain 24) was “S”, the Drug sensibility profile (MRSA clinical isolates [1]; MRSA strain 25) was “S” and the Drug sensibility profile (MRSA clinical isolates [1]; MRSA strain 26) was “S”. The Drug sensibility profile (MRSA clinical isolates [1]; MRSA strain 27) was “S”, the Drug sensibility profile (MRSA clinical isolates [1]; MRSA strain 28) was “S” and the Drug sensibility profile (MRSA clinical isolates [1]; MRSA strain 29) was “S”. The Drug sensibility profile (MRSA clinical isolates [1]; MRSA strain 30) was “S”, the Drug sensibility profile (MRSA clinical isolates [1]; MRSA strain 31) was “S” and the Drug sensibility profile (MRSA clinical isolates [1]; MRSA strain 34) was “S”. The Drug sensibility profile (MRSA clinical isolates [1]; MRSA strain 35) was “S”, the Drug sensibility profile (MRSA clinical isolates [1]; MRSA strain 36) was “S” and the Drug sensibility profile (MRSA clinical isolates [1]; MRSA strain 40) was “S”. For the same compound, the Drug sensibility profile (MRSA clinical isolates [1]; MRSA strain 41) was “S”, the Drug sensibility profile (MRSA clinical isolates [1]; MRSA strain 42) was “S” and the Drug sensibility profile (MRSA clinical isolates [1]; MRSA strain 43) was “S”. The Drug sensibility profile (MRSA clinical isolates [1]; MRSA strain 44) was “S”, the Drug sensibility profile (MRSA clinical isolates [1]; MRSA strain 45) was “S” and the Drug sensibility profile (MRSA clinical isolates [1]; MRSA strain 46) was “S”. The Drug sensibility profile (MRSA clinical isolates [1]; MRSA strain 48) was “S”, the Drug sensibility profile (MRSA clinical isolates [1]; MRSA strain 49) was “S” and the Drug sensibility profile (MRSA clinical isolates [1]; MRSA strain 50) was “S”. The Drug sensibility profile (MRSA clinical isolates [1]; MRSA strain 51) was “S”.
For CCCCCCCCCC(=O)N[C@@H](Cc1c[nH]c2ccccc12)C(=O)N[C@H](CC(N)=O)C(=O)N[C@@H](CC(=O)O)C(=O)N[C@@H]1C(=O)NCC(=O)N[C@@H](CCCN)C(=O)N[C@@H](CC(=O)O)C(=O)N[C@H](C)C(=O)N[C@@H](CC(=O)O)C(=O)NCC(=O)N[C@H](CO)C(=O)N[C@@H]([C@H](C)CC(=O)O)C(=O)N[C@@H](CC(=O)c2ccccc2N)C(=O)O[C@@H]1C [Daptomycine], the Drug sensibility profile (MRSA clinical isolates [1]; MRSA strain 1) was “S”, the Drug sensibility profile (MRSA clinical isolates [1]; MRSA strain 2) was “S” and the Drug sensibility profile (MRSA clinical isolates [1]; MRSA strain 3) was “S”. The Drug sensibility profile (MRSA clinical isolates [1]; MRSA strain 4) was “S”, the Drug sensibility profile (MRSA clinical isolates [1]; MRSA strain 5) was “S” and the Drug sensibility profile (MRSA clinical isolates [1]; MRSA strain 6) was “S”. For the same compound, the Drug sensibility profile (MRSA clinical isolates [1]; MRSA strain 7) was “S”, the Drug sensibility profile (MRSA clinical isolates [1]; MRSA strain 8) was “S” and the Drug sensibility profile (MRSA clinical isolates [1]; MRSA strain 9) was “S”. The Drug sensibility profile (MRSA clinical isolates [1]; MRSA strain 10) was “S”, the Drug sensibility profile (MRSA clinical isolates [1]; MRSA strain 12) was “S” and the Drug sensibility profile (MRSA clinical isolates [1]; MRSA strain 13) was “S”. For the same compound, the Drug sensibility profile (MRSA clinical isolates [1]; MRSA strain 14) was “S”, the Drug sensibility profile (MRSA clinical isolates [1]; MRSA strain 15) was “S” and the Drug sensibility profile (MRSA clinical isolates [1]; MRSA strain 16) was “S”. For the same compound, the Drug sensibility profile (MRSA clinical isolates [1]; MRSA strain 17) was “S”, the Drug sensibility profile (MRSA clinical isolates [1]; MRSA strain 18) was “S” and the Drug sensibility profile (MRSA clinical isolates [1]; MRSA strain 21) was “S”. The Drug sensibility profile (MRSA clinical isolates [1]; MRSA strain 23) was “S”, the Drug sensibility profile (MRSA clinical isolates [1]; MRSA strain 24) was “S” and the Drug sensibility profile (MRSA clinical isolates [1]; MRSA strain 30) was “S”. The Drug sensibility profile (MRSA clinical isolates [1]; MRSA strain 31) was “S”, the Drug sensibility profile (MRSA clinical isolates [1]; MRSA strain 34) was “S” and the Drug sensibility profile (MRSA clinical isolates [1]; MRSA strain 35) was “S”. The Drug sensibility profile (MRSA clinical isolates [1]; MRSA strain 40) was “S”, the Drug sensibility profile (MRSA clinical isolates [1]; MRSA strain 43) was “S” and the Drug sensibility profile (MRSA clinical isolates [1]; MRSA strain 46) was “S”. For the same compound, the Drug sensibility profile (MRSA clinical isolates [1]; MRSA strain 48) was “S”, the Drug sensibility profile (MRSA clinical isolates [1]; MRSA strain 49) was “S” and the Drug sensibility profile (MRSA clinical isolates [1]; MRSA strain 50) was “S”.
